Drawing on BindingDB's records for doi:10.1074/jbc.M607293200 (The Scripps Research Institute, 2007), this text covers Ki for four molecules.

A value given as a limit tells only on which side of the number the result lay.

This assay deals with T1, Phosphoribosylglycinamide formyltransferase (Escherichia coli (strain K12), UniProt P08179).
T1 sequence (P08179 whole entry): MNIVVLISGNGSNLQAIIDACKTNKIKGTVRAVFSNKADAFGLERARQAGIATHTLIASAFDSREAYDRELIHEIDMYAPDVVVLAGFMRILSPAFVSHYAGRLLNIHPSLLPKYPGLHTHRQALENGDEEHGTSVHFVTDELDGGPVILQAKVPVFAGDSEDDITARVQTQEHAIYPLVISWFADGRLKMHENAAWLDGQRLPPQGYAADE
As to the kind of experiment: GAR Tfase Activity Assay. Conditions: pH 7.5; 26 °C.
In turn, `O=C1NS(=O)(=O)Nc2nc[nH]c21` [1H,3H,4H,7H-2,1,3,5,7-imidazo[4,5-c][1,2,6]thiadiazine-2,2,4-trione] yielded a Ki of more than 100 µM. For `Nc1nc2c(c(=O)[nH]1)C[C@@H](CCc1ccc(C(=O)N[C@@H](CCC(=O)O)C(=O)O)cc1)CN2` [5,10-dideazatetrahydrofolic acid] the value was 0.1 µM; for `O=C1NS(=O)(=O)Nc2c1ncn2[C@@H]1O[C@H](CO)[C@@H](O)[C@H]1O` [7-[(2R,3R,4S,5R)-3,4-dihydroxy-5-(hydroxymethyl)oxolan-2-yl]-1H,3H,4H,7H-2,1,3,5,7-imidazo[4,5-c][1,2,6]thiadiazine-2,2,4-trione], more than 100 µM. For `O=C1NS(=O)(=O)Nc2c1ncn2[C@@H]1O[C@H](COP(=O)(O)O)[C@@H](O)[C@H]1O` [{[(2R,3S,4R,5R)-3,4-dihydroxy-5-(2,2,4-trioxo-1H,3H,4H,7H-2,1,3,5,7-imidazo[4,5-c][1,2,6]thiadiazin-7-yl)oxolan-2-yl]methoxy}phosphonic acid] the value was more than 100 µM.

In general, Ki refers to the dissociation constant of the complex between target and ligand, obtained from inhibition or displacement. Lower therefore signals tighter binding.
